In the supplement of paper PMC11451515:

Test system: SEM cells
Experiment: cell viability relative to DMSO control; higher = less cytotoxic
Settings: 48 h
How it was run: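 NOMO1 or SEM cells were plated at 500 cells/well and P12-Ichikawa cells at 1000 cells/well in 1536-well plates (5 μl), after each leukemia line had been adapted for at least four passages in each medium. Pin dosing delivered library compounds in DMSO at 11 threefold concentrations, 47 μM to 0.79 nM. CellTiter-Glo One luminescence was read after 48 h at 37°C. Viability is reported as a per-plate percentage of DMSO wells, with cell-free wells as background.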

[1] = HPLM + 10% dialyzed FBS, 0.000781 µM
[2] = HPLM + 10% dialyzed FBS, 0.00234 µM
[3] = HPLM + 10% dialyzed FBS, 0.00702 µM
[4] = HPLM + 10% dialyzed FBS, 0.0211 µM
[5] = HPLM + 10% dialyzed FBS, 0.0632 µM
[6] = HPLM + 10% dialyzed FBS, 0.19 µM
[7] = HPLM + 10% dialyzed FBS, 0.569 µM
[8] = HPLM + 10% dialyzed FBS, 1.71 µM
[9] = HPLM + 10% dialyzed FBS, 5.12 µM
[10] = HPLM + 10% dialyzed FBS, 15.4 µM
[11] = HPLM + 10% dialyzed FBS, 46.1 µM
[12] = RPMI 5 mM glucose + 10% FBS, 0.000781 µM
[13] = RPMI 5 mM glucose + 10% FBS, 0.00234 µM
[14] = RPMI 5 mM glucose + 10% FBS, 0.00702 µM
[15] = RPMI 5 mM glucose + 10% FBS, 0.0211 µM
[16] = RPMI 5 mM glucose + 10% FBS, 0.0632 µM
[17] = RPMI 5 mM glucose + 10% FBS, 0.19 µM
[18] = RPMI 5 mM glucose + 10% FBS, 0.569 µM
[19] = RPMI 5 mM glucose + 10% FBS, 1.71 µM
[20] = RPMI 5 mM glucose + 10% FBS, 5.12 µM
[21] = RPMI 5 mM glucose + 10% FBS, 15.4 µM
[22] = RPMI 5 mM glucose + 10% FBS, 46.1 µM
[23] = RPMI 5 mM glucose + 10% dialyzed FBS, 0.000781 µM
[24] = RPMI 5 mM glucose + 10% dialyzed FBS, 0.00234 µM
[25] = RPMI 5 mM glucose + 10% dialyzed FBS, 0.00702 µM
[26] = RPMI 5 mM glucose + 10% dialyzed FBS, 0.0211 µM
[27] = RPMI 5 mM glucose + 10% dialyzed FBS, 0.0632 µM
[28] = RPMI 5 mM glucose + 10% dialyzed FBS, 0.19 µM
[29] = RPMI 5 mM glucose + 10% dialyzed FBS, 0.569 µM
[30] = RPMI 5 mM glucose + 10% dialyzed FBS, 1.71 µM
[31] = RPMI 5 mM glucose + 10% dialyzed FBS, 5.12 µM
[32] = RPMI 5 mM glucose + 10% dialyzed FBS, 15.4 µM
[33] = RPMI 5 mM glucose + 10% dialyzed FBS, 46.1 µM

| SMILES | cell viability [1] [%] | cell viability [2] [%] | cell viability [3] [%] | cell viability [4] [%] | cell viability [5] [%] | cell viability [6] [%] | cell viability [7] [%] | cell viability [8] [%] | cell viability [9] [%] | cell viability [10] [%] | cell viability [11] [%] | cell viability [12] [%] | cell viability [13] [%] | cell viability [14] [%] | cell viability [15] [%] | cell viability [16] [%] | cell viability [17] [%] | cell viability [18] [%] | cell viability [19] [%] | cell viability [20] [%] | cell viability [21] [%] | cell viability [22] [%] | cell viability [23] [%] | cell viability [24] [%] | cell viability [25] [%] | cell viability [26] [%] | cell viability [27] [%] | cell viability [28] [%] | cell viability [29] [%] | cell viability [30] [%] | cell viability [31] [%] | cell viability [32] [%] | cell viability [33] [%] |
| --- | --- | --- | --- | --- | --- | --- | --- | --- | --- | --- | --- | --- | --- | --- | --- | --- | --- | --- | --- | --- | --- | --- | --- | --- | --- | --- | --- | --- | --- | --- | --- | --- | --- |
| CCC(C)CCCCC(=O)N[C@@H](CCN)C(=O)NC(C(=O)N[C@H](CCN)C(=O)N[C@@H]1CCNC(=O)C([C@@H](C)O)NC(=O)[C@@H](CCN)NC(=O)[C@@H](CCN)NC(=O)[C@@H](CC(C)C)NC(=O)[C@H](Cc2ccccc2)NC(=O)[C@H](CCN)NC1=O)[C@@H](C)O (stereo not given in full) | 81.6 | 85.8 | 94 | 94.3 | 100 | 92.9 | 76.5 | 112 | 109 | 110 | 101 | 104 | 113 | 109 | 109 | 107 | 110 | 90.1 | 108 | 111 | 118 | 108 | 87.1 | 90.9 | 93.2 | 86.1 | 107 | 111 | 49.8 | 103 | 105 | 102 | 118 |
| Cc1ccc([C@@H]2O[C@H](CO)[C@@H](O)[C@H](O)[C@H]2O)cc1Cc1ccc(-c2ccc(F)cc2)s1 | 108 | 112 | 117 | 112 | 130 | 114 | 119 | 115 | 110 | 125 | 101 | 109 | 117 | 112 | 122 | 114 | 117 | 123 | 121 | 111 | 118 | 69.5 | 113 | 103 | 106 | 118 | 132 | 119 | 109 | 98.7 | 107 | 116 | 71.2 |
| NC(=O)c1cccc(-c2cc(Nc3ccc(OC(F)(F)F)cc3)ncn2)c1 | 82.4 | 92.7 | 95.5 | 91.9 | 87.2 | 111 | 101 | 106 | 87.8 | 82 | 69.3 | 105 | 116 | 106 | 111 | 104 | 117 | 112 | 111 | 113 | 101 | 69.1 | 80 | 91.6 | 96.5 | 91.8 | 95 | 98.2 | 96.1 | 104 | 84.8 | 68.9 | 54.1 |
| O=C1NC(=O)/C(=C/c2ccc3nccnc3c2)S1 | 117 | 123 | 128 | 114 | 120 | 113 | 109 | 105 | 97 | 104 | 102 | 120 | 136 | 115 | 126 | 136 | 120 | 128 | 115 | 73 | 99.5 | 103 | – | – | – | – | – | – | – | – | – | – | – |
| Nc1n[nH]c2nnc(-c3c(-c4ccccc4)nn4ccccc34)cc12 | 93.5 | 109 | 109 | 115 | 116 | 127 | 124 | 109 | 113 | 92.2 | 9.4 | 113 | 114 | 107 | 121 | 122 | 131 | 121 | 117 | 117 | 100 | 17.3 | 116 | 102 | 119 | 126 | 114 | 125 | 134 | 123 | 137 | 116 | 21 |
| Nc1ccc(C(=O)Nc2cccc(-c3nc(N4CCOCC4)c4oc5ncccc5c4n3)c2)cn1 | 119 | 120 | 130 | 113 | 115 | 107 | 96.3 | 116 | 90.1 | 85.8 | 4.82 | 88 | 80.1 | 71.8 | 75.2 | 83.9 | 68.1 | 71.7 | 77.4 | 57.9 | 38.9 | 3.46 | 129 | 119 | 116 | 111 | 114 | 102 | 104 | 107 | 79.1 | 64 | 5.84 |
| CC1(C)SCCN([S+](=O)([O-])c2ccc(OCC#CCO)cc2)[C@H]1C(=O)NO | 97.8 | 96.3 | 109 | 112 | 104 | 99.6 | 102 | 89.5 | 91.3 | 86.6 | 80.8 | 129 | 116 | 115 | 123 | 109 | 107 | 105 | 104 | 106 | 91.4 | 88.1 | 105 | 109 | 105 | 103 | 91.1 | 94.3 | 107 | 90.1 | 78.9 | 74.1 | 69.5 |
